What was measured:
Type in all cases: biochemical
[1] = target: Pim-1 (Homo sapiens (Human), UniProt P11309); experiment: Pim-1 kinase assay; conditions: 1 mM ATP, biotin-labeled BAD peptide substrate; read-out: Pim1 IC50
How it was run: (§1)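 Biotin-BAD peptide ([…]) phosphorylated with 1 mM ATP by 2.5 pM Pim-1 or 1.25 pM Pim-3, 1 h at 25 °C in Tris pH 7.5, MgCl2, DTT buffer. EDTA stop with anti-phospho-BAD (Ser112) antibody and AlphaScreen streptavidin donor/Protein-A acceptor beads; signal read after 1 h dark incubation.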

[2] = target: Pim-2 (Homo sapiens (Human), UniProt Q9P1W9); experiment: Pim-2 kinase assay; conditions: 1 mM ATP, fluorescein-labeled CREBtide peptide substrate; read-out: Pim2 IC50
How it was run: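 Phosphorylated CREBtide was detected by terbium anti-pSer133 antibody TR-FRET after EDTA quench and 30 min at room temperature. Reactions ran 2 h at 25 °C with 1 mM ATP, 0.05 μM fluorescein-labelled substrate and 1 nM enzyme in pH 7.5 Tris buffer.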

[3] = target: Pim-3 (Homo sapiens (Human), UniProt Q86V86); experiment: Pim-3 kinase assay; conditions: 1 mM ATP, biotin-labeled BAD peptide substrate; read-out: Pim3 IC50
How it was run: as §1

Pim-1, sequence (P11309 whole entry): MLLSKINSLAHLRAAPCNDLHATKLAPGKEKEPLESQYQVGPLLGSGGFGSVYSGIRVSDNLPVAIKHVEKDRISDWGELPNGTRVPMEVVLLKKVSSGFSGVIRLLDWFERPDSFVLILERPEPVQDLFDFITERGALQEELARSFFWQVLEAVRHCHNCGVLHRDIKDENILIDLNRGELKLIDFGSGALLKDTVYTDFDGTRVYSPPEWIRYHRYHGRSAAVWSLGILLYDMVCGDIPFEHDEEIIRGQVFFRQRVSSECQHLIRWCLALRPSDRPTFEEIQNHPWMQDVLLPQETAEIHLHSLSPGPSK
Pim-2, sequence (Q9P1W9 whole entry): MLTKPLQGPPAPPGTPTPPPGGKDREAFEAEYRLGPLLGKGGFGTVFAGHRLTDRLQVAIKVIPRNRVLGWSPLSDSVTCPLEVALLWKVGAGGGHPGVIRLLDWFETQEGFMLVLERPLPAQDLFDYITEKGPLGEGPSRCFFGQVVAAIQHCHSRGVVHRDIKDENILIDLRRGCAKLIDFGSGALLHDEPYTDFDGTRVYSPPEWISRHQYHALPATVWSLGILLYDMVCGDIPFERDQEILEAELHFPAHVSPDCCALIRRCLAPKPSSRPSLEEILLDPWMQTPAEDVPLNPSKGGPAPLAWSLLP

**Q.** `CN(C)CCCc1cnc2c(C(=O)Nc3cnccc3N3C[C@@H](N)C[C@@H](C(F)(F)F)C3)c(N)oc2c1` [Example 135, 2-Amino-N-{4-[(3S,5R)-3-amino-5-(trifluoromethyl)piperidin-1-yl]pyridin-3-yl}-6-[3-(dimethylamino)propyl]furo[3,2-b]pyridine-3-carboxamide] was tested. Which IC50 [1] did it give?
**A.** Its IC50 is at most 10 nM.

**Q.** What about the IC50 [2] of the same compound?
**A.** The IC50 was 10 to 100 nM.

**Q.** And the IC50 [3]?
**A.** Its IC50 is at most 10 nM.

**Q.** For `Nc1oc2cc(Cl)cnc2c1C(=O)Nc1cnccc1N1C[C@@H](N)C[C@@H](C(F)(F)F)C1` [Example 62, 2-amino-N-{4-[(3S,5R)-3-amino-5-(trifluoromethyl)piperidin-1-yl]pyridin-3-yl}-6-chlorofuro[3,2-b]pyridine-3-carboxamide], which IC50 [1] is on record?
**A.** The IC50 was at most 10 nM.

**Q.** What about the IC50 [2] of the same compound?
**A.** The IC50 was 10 to 100 nM.

**Q.** And the IC50 [3]?
**A.** The IC50 was at most 10 nM.

**Q.** Which results are given for `CC(=O)Nc1cnc2c(C(=O)Nc3cnccc3N3C[C@@H](N)[C@H](O)[C@@H](C)C3)c(N)sc2c1` [Example 141, 6-(Acetylamino)-2-amino-N-{4-[(3R,4R,5S)-3-amino-4-hydroxy-5-methylpiperidin-1-yl]pyridin-3-yl}thieno[3,2-b]pyridine-3-carboxamide]?
**A.** IC50 [1]: ≤ 10 nM; IC50 [2]: 10 to 100 nM; IC50 [3]: ≤ 10 nM

**Q.** Which IC50 [1] does the source give for `Cn1ncc(NC(=O)c2c(N)sc3cc(-c4c(F)cccc4F)cnc23)c1N1CCCC(N)CC1` (stereo not drawn) [Example 27, 2-Amino-N-[5-(4-aminoazepan-1-yl)-1-methyl-1H-pyrazol-4-yl]-6-(2,6-difluorophenyl)-thieno[3,2-b]pyridine-3-carboxamide] here?
**A.** The IC50 was at most 10 nM.

**Q.** And the IC50 [2]?
**A.** Its IC50 is 10 to 100 nM.

**Q.** What about the IC50 [3] of the same compound?
**A.** Its IC50 is at most 10 nM.

**Q.** Which results are given for `COc1cnc2c(C(=O)Nc3cnccc3N3CCC[C@H](N)C3)c(N)sc2c1` [Example 12, 2-Amino-N-{4-[(3S)-3-aminopiperidin-1-yl]pyridin-3-yl}-6-methoxythieno[3,2-b]pyridine-3-carboxamide]?
**A.** IC50 [1]: ≤ 10 nM; IC50 [2]: 100 to 1000 nM; IC50 [3]: ≤ 10 nM

**Q.** Which results are given for `Nc1oc2cc(C3CC3)cnc2c1C(=O)Nc1cnccc1N1C[C@@H](N)C[C@@H](C(F)(F)F)C1` [Example 113, 2-Amino-N-{4-[(3S,5R)-3-amino-5-(trifluoromethyl)piperidin-1-yl]pyridin-3-yl}-6-cyclopropylfuro[3,2-b]pyridine-3-carboxamide]?
**A.** IC50 [1]: ≤ 10 nM; IC50 [2]: ≤ 10 nM; IC50 [3]: ≤ 10 nM

**Q.** How did the IC50 [1] turn out when `Nc1sc2cc(N3CCOCC3)cnc2c1C(=O)Nc1cnccc1N1C[C@@H](N)C[C@@H](C(F)(F)F)C1` [Example 144, 2-Amino-N-(4-((3S,5R)-3-amino-5-(trifluoromethyl)piperidin-1-yl)pyridin-3-yl)-6-morpholinothieno[3,2-b]pyridine-3-carboxamide] was run?
**A.** Its IC50 is at most 10 nM.

**Q.** And the IC50 [2]?
**A.** The IC50 was 10 to 100 nM.

**Q.** What about the IC50 [3] of the same compound?
**A.** Its IC50 is at most 10 nM.

**Q.** For `Nc1sc2cc(-c3ccccc3)cnc2c1C(=O)Nc1cnccc1N1CCC[C@H](N)C1` [Example 24, 2-Amino-N-{4-[(3S)-3-aminopiperidin-1-yl]pyridin-3-yl}-6-phenylthieno[3,2-b]pyridine-3-carboxamide], which IC50 [1] is on record?
**A.** Its IC50 is at most 10 nM.

**Q.** And the IC50 [2]?
**A.** Its IC50 is over 1000 nM.

**Q.** What about the IC50 [3] of the same compound?
**A.** The IC50 was at most 10 nM.

**Q.** How did the IC50 [1] turn out when `Cc1ccnc2c(C(=O)Nc3cnccc3N3CCC[C@H](N)C3)c(N)oc12` [Example 55, 2-amino-N-{4-[(3S)-3-aminopiperidin-1-yl]pyridin-3-yl}-7-methyl-furo[3,2-b]pyridine-3-carboxamide] was run?
**A.** The IC50 was 10 to 100 nM.

**Q.** What about the IC50 [2] of the same compound?
**A.** Its IC50 is over 2000 nM.

**Q.** And the IC50 [3]?
**A.** The IC50 was at most 10 nM.

**Q.** With `COc1cnc2c(C(=O)Nc3cnn(C)c3N3CCCC(N)CC3)c(N)sc2c1` (stereo not drawn) [Example 13, 2-Amino-N-[5-(4-aminoazepan-1-yl)-1-methyl-1H-pyrazol-4-yl]-6-methoxythieno[3,2-b]pyridine-3-carboxamide] as the compound, how does the IC50 [1] read?
**A.** Its IC50 is at most 10 nM.

**Q.** And the IC50 [2]?
**A.** Its IC50 is 10 to 100 nM.

**Q.** What about the IC50 [3] of the same compound?
**A.** Its IC50 is at most 10 nM.

**Q.** How did the IC50 [1] turn out when `Nc1oc2cc(C(F)(F)F)cnc2c1C(=O)Nc1cnccc1N1CCC[C@H](N)C1` [Example 48, 2-amino-N-{4-[(3S)-3-aminopiperidin-1-yl]pyridin-3-yl}-6-(trifluoromethyl)furo[3,2-b]pyridine-3-carboxamide] was run?
**A.** The IC50 was at most 10 nM.

**Q.** What about the IC50 [2] of the same compound?
**A.** The IC50 was 10 to 100 nM.

**Q.** And the IC50 [3]?
**A.** Its IC50 is at most 10 nM.

**Q.** With `CC(C)Oc1cnc2c(C(=O)Nc3cnccc3N3C[C@H](C)C[C@H](N)C3)c(N)oc2c1` [Example 121, 2-Amino-N-(4-((3S,5R)-3-amino-5-methylpiperidin-1-yl)pyridin-3-yl)-6-isopropoxyfuro[3,2-b]pyridine-3-carboxamide] as the compound, how does the IC50 [1] read?
**A.** Its IC50 is at most 10 nM.

**Q.** What about the IC50 [2] of the same compound?
**A.** Its IC50 is 10 to 100 nM.

**Q.** What about the IC50 [3] of the same compound?
**A.** The IC50 was at most 10 nM.

Reference: US10000507B2, “Furo- and thieno-pyridine carboxamide compounds useful as pim kinase inhibitors” (Incyte Corporation, priority 2013, dated 2018)
